Measured values published in patent US12194003B2, “Compositions for treating acne and dermatological conditions” (priority 2020, dated 2025).
Where “and” joins values, the source holds several entries; their conditions need not be identical. Equal entries are not always repeated. Where two headings read alike, the source gives them in different places.

Assays:
Primary human sebocytes = assay: Sebocyte ATP metabolism luminescence assay (Celltiter-Glo), percent luminescence reduction; assay type: cell-based; settings: for % Luminescence Reduction (Repeat 1, 2, 3): niacinamide 0 μM
Experimental: The ability of various combinations of ingredients to increase ATP metabolism is evaluated via a sebocyte assay according to the following protocol. Immortalized human sebaceous gland cell lines (sebocytes) are a well-established model for studying acne. Primary human sebocytes Batch #13140680) were obtained from Celprogen™ and grown according to manufacturer's instructions. The cells were seeded at a concentration of 5000 cells per cm^2 in a tissue culture treated flask and incubated at 37° C. in a humidified incubator in the presence of 5% CO2 (all subsequent incubations were subject to these conditions). At 60-80% confluency, cells were passaged by detaching cells using TrypLE™ Express (Sigma). Cells were seeded in a black 96-well half area plate at a concentration of 5000 cells per well and allowed to equilibrate overnight at 37° C.
[…] Various concentrations of CBD (0 μM, 1 μM, 3 μM, 10 μM, 30 μM), niacinamide (0 μM, 4 μM, 10 μM, 20 μM, 40 μM), and urolithin A (0 μM, 3 μM, 10 μM, 30 μM, 100 μM) were evaluated in triplicate. The ability of each composition to increase ATP metabolism was determined using a luminescence assay (Celltiter-Glo™) according to manufacturer's instructions.
Table 11 reports the percent luminescence reductions for cells treated with each composition compared to cells that are not administered a composition of the disclosure. This value is calculated using the formula: (1−(treatment luminescence/control luminescence))*100. The luminescence measurements in this assay are proportional to the number of metabolically active cells in a sample. Cells that are metabolically active (e.g., have functioning mitochondria) consume ATP and convert luciferin to oxyluciferin.

sebocyte = assay: Sebocyte cell viability / cell death; assay type: cell-based, human; settings: L-ergothioneine 1 nM to 100 μM; FIG. 6
Experimental: Sebocytes were incubated with compositions comprising CBD, niacinamide, urolithin A, or combination thereof. Various concentrations of CBD (0 μM, 1 μM, 3 μM, 10 μM, 30 μM), niacinamide (0 μM, 4 μM, 10 μM, 20 μM, 40 μM), and urolithin A (0 μM, 3 μM, 10 μM, 30 μM, 100 μM) were evaluated in triplicate. The ability of each composition to increase ATP metabolism was determined using a luminescence assay (Celltiter-Glo™) according to manufacturer's instructions.
These assays also tested the ability of the antioxidant L-ergothioneine at concentrations ranging from 1 nM to 100 μM to affect skin cell viability and influence mitochondrial function.

C=C(C)[C@@H]1CCC(C)=C[C@H]1c1c(O)cc(CCCCC)cc1O [CBD, cannabidiol]
% Luminescence Reduction (Repeat 1, 2, 3) (Primary human sebocytes; CBD 1 μM, urolithin A 0 μM): 5% and 9%

C[N+](C)(C)[C@@H](Cc1c[nH]c(=S)[nH]1)C(=O)[O-] [L-ergothioneine]
ATP metabolism (Primary human sebocytes; L-ergothioneine 1 nM to 100 μM, FIG. 6): retain viability and ATP metabolism
cell viability (sebocyte): retain viability

NC(=O)c1cccnc1 [Niacinamide, niacinamide]
Luminescence Reduction of Niacinamide Alone (Primary human sebocytes): 3.0
Luminescence Reduction of Niacinamide Alone (Primary human sebocytes; Niacinamide 4.0 μM): 3.0%
Luminescence Reduction of Niacinamide Alone (Primary human sebocytes; Niacinamide 10.0 μM): 35.0%
Luminescence Reduction of Niacinamide Alone (Primary human sebocytes; Niacinamide 20.0 μM): 52.0%
Luminescence Reduction of Niacinamide Alone (Primary human sebocytes; Niacinamide 40.0 μM): 90.7%
Luminescence Reduction of Niacinamide Alone (Primary human sebocytes; niacinamide 4.0 μM): 3.0
Luminescence Reduction of Niacinamide Alone (Primary human sebocytes; niacinamide 10.0 μM): 35.0
Luminescence Reduction of Niacinamide Alone (Primary human sebocytes; niacinamide 20.0 μM): 52.0
Luminescence Reduction of Niacinamide Alone (Primary human sebocytes; niacinamide 40.0 μM): 90.7

O=c1oc2cc(O)ccc2c2ccc(O)cc12 [Urolithin A, 3,8-dihydroxybenzo[c]chromen-6-one]
Luminescence Reduction of Urolithin A Alone (Primary human sebocytes; 30 µM): 16.7%
% Luminescence Reduction (Repeat 1, 2, 3) (Primary human sebocytes; CBD 0 μM, urolithin A 30 μM): 15% and 17% and 18%
% Luminescence Reduction (Repeat 1, 2, 3) (Primary human sebocytes; CBD 0 μM, urolithin A 100 μM): 25% and 35% and 27%
Luminescence Reduction of Urolithin A Alone (Primary human sebocytes; Urolithin A 3.0 μM): 18.7%
Luminescence Reduction of Urolithin A Alone (Primary human sebocytes; Urolithin A 10.0 μM): 13.3%
Luminescence Reduction of Urolithin A Alone (Primary human sebocytes; Urolithin A 100.0 μM): 29.0%
